Converted amounts (≈) assume the structure as drawn. Like-named read-outs stand apart in the source and are kept apart here.
What was measured:
Streptococcus pneumoniae = assay: MIC, broth microdilution (CLSI); type: cell-based; conditions: Streptococcus pneumoniae, read-out: MIC
Description: (§1) The solvent for all of the compounds was deionized water (DIW), and all of the compounds dissolved in the solvent. The stock solutions were allowed to stand in DIW for one hour at room temperature prior to testing to allow time for auto-sterilization.
(§2) The test organisms were originally received from clinical sources, or from the American Type Culture Collection. When received, the organisms were sub-cultured onto an appropriate agar medium. Following incubation, colonies were harvested from these plates and cell suspensions prepared and frozen at −80° C. On the day prior to assay, a frozen vial of each culture was thawed and the contents were streaked for isolation onto either Tryptic Soy Agar (Becton Dickinson, Sparks, Md.) or Tryptic Soy Agar (Enhanced Hemolysis; Becton Dickinson) supplemented with 5% sheep blood for streptococci. The agar plates were incubated overnight at 35° C. Staphylococcus aureus ATCC 29213 and Enterococcus faecalis ATCC 29212 were included as quality control isolates in the assay.
(§3) The test medium for the broth microdilution testing was Mueller Hinton II broth (MHB II; BBL# 212322, Lot # 6024003, Becton Dickinson). The broth was prepared at 1.05× normal weight/volume to offset the 5% volume of the drug solution in the final test plates.
For streptococci, lysed horse blood (Lot # H88621; Cleveland Scientific, Bath, Ohio) was added to the MHB II at a final concentration of 2%. […]
(§4) MIC values were determined using a broth microdilution method as recommended by the Clinical and Laboratory Standards Institute (Clinical and Laboratory Standards Institute^a. Methods for Dilution Antimicrobial Susceptibility Tests for Bacteria That Grow Aerobically; Approved Standard-Seventh Edition. Clinical and Laboratory Standards Institute document M7-A7 [ISBN 1-56238-587-9]. Clinical and Laboratory Standards Institute, 940 West Valley Road, Suite 1400, Wayne, Pa. 19087-1898 USA, 2006). Automated liquid handlers (Multidrop 384, Labsystems, Helsinki, Finland; Biomek 2000 and Multimek 96, Beckman Coulter, Fullerton Calif.) were used to conduct serial dilutions and make liquid transfers.
(§5) Wells of two standard 96-well microdilution plates (Falcon 3918; Becton Dickinson) were filled with 150 μL of […] using the Multidrop 384. These plates were used to prepare the drug “mother plates” that provided the serial drug dilutions for replicate “daughter plates”. The Biomek 2000 was used to transfer 150 μl of each stock solution from the wells of column 1 of a deep well plate to the corresponding wells in column 1 of the mother plate and to make eleven 2-fold serial dilutions in the mother plates. The wells of column 12 contained no drug and were the organism growth control wells. Each mother plate has the capacity to create a total of 12 daughter plates.
(§6) The daughter plates were loaded with 180 μL of one of the media described above using the Multidrop 384. The wells of the daughter plates ultimately contained 180 μL of MHB II, 10 μL of drug solution, and 10 μL of bacterial inoculum prepared in broth appropriate to the test organism (1.05×). The daughter plates were prepared on the Multimek 96 instrument, which transferred 10 μL of drug solution from each well of the mother plate to each corresponding well of each daughter plate in a single step.
Standardized inoculum of each organism was prepared following Clinical and Laboratory Standards Institute (Clinical and Laboratory Standards Institute^b. Performance Standards for Antimicrobial Susceptibility Testing; Sixteenth Informational Supplement. CLSI document M100-S16 [ISBN 1-56238-588-7]. Clinical and Laboratory Standards Institute, 940 West Valley Road, Suite 1400, Wayne, Pa. 19087-1898 USA, 2006) methods. The inoculum for each organism was dispensed into sterile reservoirs divided by length (Beckman Coulter), and the Biomek 2000 was used to inoculate the plates. […]

Enterococcus faecium = assay: MIC, broth microdilution (CLSI); type: cell-based; conditions: Enterococcus faecium, read-out: MIC
Description: (§7) The stock solutions were allowed to stand in DIW for one hour at room temperature prior to testing to allow time for auto-sterilization.
as §2, §3
(§8) CLSI guidelines recommend that Mueller-Hinton II broth be adjusted to contain 50 mg/L of Ca^++ ions for proper daptomycin MIC results. Since Mueller-Hinton II broth has already been adjusted by the manufacturer to contain approximately 25 mg/L of Ca^++ ions, an additional 25 mg/L of Ca^++ ions was adjusted with 10 mg/mL of CaCl2.2H2O (Lot# 084K0215; Sigma-Aldrich) added at a rate of 0.1 mL/L of broth, for each desired increment of 1 mg/L. This supplemented Mueller-Hinton II broth was used only in wells containing daptomycin.
as §4, §5, §6

Staphylococcus aureus [1] = assay: MIC, broth microdilution (CLSI); type: cell-based; conditions: Staphylococcus aureus, read-out: MIC
Description: as §7, §2, §3, §8, §4, §5, §6

Enterococcus faecalis [2] = conditions: quality control range for Enterococcus faecalis ATCC 29212 (# 101); cited from earlier work
Enterococcus faecalis [3] = assay: MIC, broth microdilution (CLSI); type: cell-based; conditions: Enterococcus faecalis, read-out: MIC
Description: as §1, §2, §3, §8, §4, §5
(§9) The daughter plates were loaded with 180 μL of one of the media described above using the Multidrop 384. The wells of the daughter plates ultimately contained 180 μL of MHB II, 10 μL of drug solution, and 10 μL of bacterial inoculum prepared in broth appropriate to the test organism (1.05×). The daughter plates were prepared on the Multimek 96 instrument, which transferred 10 μL of drug solution from each well of the mother plate to each corresponding well of each daughter plate in a single step. […]

[4] = system: Staphylococcus epidermidis; assay: MIC, broth microdilution (CLSI); type: cell-based; conditions: read-out: MIC
Description: as §1, §2, §3, §8, §4, §5, §9

Staphylococcus aureus [5] = conditions: quality control range for Staphylococcus aureus ATCC 29213 (# 100); cited from earlier work
Streptococcus pyogenes = assay: MIC, broth microdilution (CLSI); type: cell-based
Description: as §1, §2, §3
For streptococci, lysed horse blood (Lot # H88621; Cleveland Scientific, Bath, Ohio) was added to the MHB II at a final concentration of 2%.
as §8, §4, §5, §9

[6] = Streptococcus pneumoniae Micromyx # 374, Wild type
[7] = Streptococcus pneumoniae Micromyx # 927, mef(A)
[8] = Streptococcus pneumoniae Micromyx # 928, erm(B)
[9] = Enterococcus faecium Micromyx # 750, Van^S
[10] = Enterococcus faecium Micromyx # 1721, DAP^R
[11] = ATCC 29213 / MSSA, Staphylococcus aureus Micromyx # 100, MSSA, CLSI QC strain (ATCC 29213)
[12] = MRSA, Staphylococcus aureus Micromyx # 1004, MRSA, FA^R
[13] = MRSA, Staphylococcus aureus Micromyx # 1730, Community-acquired MRSA
[14] = MSSA, Staphylococcus aureus Micromyx # 1002, MSSA, macrolide^R
[15] = Staphylococcus aureus Micromyx # 1016, FA^R
[16] = Staphylococcus aureus Micromyx # 1727, GM^R
[17] = Staphylococcus aureus Micromyx # 1731, CHL^R
[18] = ATCC29212, Enterococcus faecalis Micromyx # 101, VSE, CLSI QC strain (ATCC 29212)
[19] = Enterococcus faecalis Micromyx # 413, LZD^R from res. dev. or other
[20] = Enterococcus faecalis Micromyx # 486, Van A
[21] = Enterococcus faecalis Micromyx # 1088, Van B
[22] = Staphylococcus epidermidis Micromyx # 108, MRSE
[23] = Staphylococcus epidermidis Micromyx # 835, MSSE
[24] = Streptococcus pyogenes Micromyx # 942, macrolide^R
[25] = Streptococcus pyogenes Micromyx # 985, Susceptible, read-out: MIC

Work on `CC(=O)NC[C@H]1CN(c2ccc(N3CCOCC3)c(F)c2)C(=O)O1` [Linezolid, linezolid] yielded an MIC (Streptococcus pneumoniae; [6]) of 4 µg/mL (≈ 11.9 µM), an MIC (Streptococcus pneumoniae; [7]) of 2 µg/mL (≈ 5.93 µM) and an MIC (Streptococcus pneumoniae; [8]) of 2 µg/mL (≈ 5.93 µM). The MIC (Enterococcus faecium; [9]) was 4 µg/mL (≈ 11.9 µM), the MIC (Enterococcus faecium; Enterococcus faecium Micromyx # 752, Van A) was 4 µg/mL (≈ 11.9 µM) and the MIC (Enterococcus faecium; Enterococcus faecium Micromyx # 1120, Van B) was 4 µg/mL (≈ 11.9 µM). The MIC (Enterococcus faecium; [10]) was 2 µg/mL (≈ 5.93 µM), the MIC (Staphylococcus aureus [1]; [11]) was 8 µg/mL (≈ 23.7 µM) and the MIC (Staphylococcus aureus [1]; [12]) was 4 µg/mL (≈ 11.9 µM). It also gave an MIC (Staphylococcus aureus [1]; [13]) of 8 µg/mL (≈ 23.7 µM), an MIC (Staphylococcus aureus [1]; [14]) of 4 µg/mL (≈ 11.9 µM) and an MIC (Staphylococcus aureus [1]; Staphylococcus aureus Micromyx # 106, RA^R) of 4 µg/mL (≈ 11.9 µM). It also gave an MIC (Staphylococcus aureus [1]; [15]) of 8 µg/mL (≈ 23.7 µM), an MIC (Staphylococcus aureus [1]; Staphylococcus aureus Micromyx # 1651, LZD^R clinical isolate) of 64 µg/mL (≈ 190 µM) and an MIC (Staphylococcus aureus [1]; [16]) of 4 µg/mL (≈ 11.9 µM). For the same compound, the MIC (Staphylococcus aureus [1]; [17]) was 8 µg/mL (≈ 23.7 µM), the MIC (Staphylococcus aureus [1]; VISA, Staphylococcus aureus Micromyx # 1723, VISA) was 4 µg/mL (≈ 11.9 µM) and the “MIC, CLSI Recommended Range” value (Enterococcus faecalis [2]) was 1 to 4 µg/mL. For the same compound, the MIC (Enterococcus faecalis [3]; [18]) was 8 µg/mL (≈ 23.7 µM), the MIC (Enterococcus faecalis [3]; [19]) was 64 µg/mL (≈ 190 µM) and the MIC (Enterococcus faecalis [3]; [20]) was 4 µg/mL (≈ 11.9 µM). For the same compound, the MIC (Enterococcus faecalis [3]; [21]) was 4 µg/mL (≈ 11.9 µM), the MIC [4, 22] was 4 µg/mL (≈ 11.9 µM) and the MIC [4, 23] was 4 µg/mL (≈ 11.9 µM). The “MIC, CLSI Recommended Range” value (Staphylococcus aureus [5]) was 1 to 4 µg/mL, the MIC (Streptococcus pyogenes; [24]) was 4 µg/mL (≈ 11.9 µM) and the MIC (Streptococcus pyogenes; [25]) was 4 µg/mL (≈ 11.9 µM).
In the case of `Cc1onc(-c2ccccc2)c1C(=O)N[C@@H]1C(=O)N2[C@@H]1SC(C)(C)[C@@H]2C(=O)O` [Oxacillin, oxacillin], the MIC (Streptococcus pneumoniae; [6]) is reported as 16 µg/mL (≈ 39.9 µM), the MIC (Streptococcus pneumoniae; Streptococcus pneumoniae Micromyx # 375, parC, gyrB) is reported as ≤ 0.12 µg/mL and the MIC (Streptococcus pneumoniae; Streptococcus pneumoniae Micromyx # 376, parC, gyrA) is reported as ≤ 0.12 µg/mL. The MIC (Streptococcus pneumoniae; Streptococcus pneumoniae Micromyx # 379, parC, gyrA, gyrB) was ≤ 0.12 µg/mL, the MIC (Streptococcus pneumoniae; [7]) was 16 µg/mL (≈ 39.9 µM) and the MIC (Streptococcus pneumoniae; [8]) was 16 µg/mL (≈ 39.9 µM). The MIC (Enterococcus faecium; [9]) was 4 µg/mL (≈ 9.96 µM), the MIC (Enterococcus faecium; [10]) was 32 µg/mL (≈ 79.7 µM) and the MIC (Staphylococcus aureus [1]; [11]) was 0.25 µg/mL (≈ 0.623 µM). For the same compound, the MIC (Staphylococcus aureus [1]; [12]) was 16 µg/mL (≈ 39.9 µM), the MIC (Staphylococcus aureus [1]; [13]) was 32 µg/mL (≈ 79.7 µM) and the MIC (Staphylococcus aureus [1]; [14]) was 0.5 µg/mL (≈ 1.25 µM). For the same compound, the MIC (Staphylococcus aureus [1]; [15]) was 32 µg/mL (≈ 79.7 µM), the MIC (Staphylococcus aureus [1]; [16]) was 0.25 µg/mL (≈ 0.623 µM) and the MIC (Staphylococcus aureus [1]; [17]) was 0.25 µg/mL (≈ 0.623 µM). For the same compound, the “MIC, CLSI Recommended Range” value (Enterococcus faecalis [2]) was 8 to 32 µg/mL, the MIC (Enterococcus faecalis [3]; [18]) was 16 µg/mL (≈ 39.9 µM) and the MIC (Enterococcus faecalis [3]; [19]) was 64 µg/mL (≈ 159 µM). For the same compound, the MIC (Enterococcus faecalis [3]; [20]) was 16 µg/mL (≈ 39.9 µM), the MIC (Enterococcus faecalis [3]; [21]) was 16 µg/mL (≈ 39.9 µM) and the MIC [4, 22] was 64 µg/mL (≈ 159 µM). For the same compound, the MIC [4, 23] was ≤ 0.12 µg/mL, the “MIC, CLSI Recommended Range” value (Staphylococcus aureus [5]) was 0.12 to 0.5 µg/mL and the MIC (Streptococcus pyogenes; [24]) was “≦0.12 μg/mL”. The MIC (Streptococcus pyogenes; [25]) was ≤ 0.12 µg/mL.
